Data as given in patent publication US12448369B2 (Edgewise Therapeutics, Inc., priority 2023, dated 2025).

Tests used:
[1] = system: Porcine atria myofibrils (atrial myosin ATPase); assay: Myofibril ATPase assay, porcine atria myofibrils; format: biochemical; details: porcine atria myofibrils
How it was run: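 Atrial myofibril ATPase measured by NADH-coupled absorbance at 340 nm; vehicle-normalized slopes fitted to give Y75 or Y125 values.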

[2] = molecular target: T1, Porcine ventricle myofibrils (ventricular myosin ATPase) (Sus scrofa, UniProt P79293); assay: Myofibril ATPase assay, porcine ventricle myofibrils; format: biochemical, porcine (Yucatan minipigs); details: porcine ventricle myofibrils
T1 construct: Myofibrils from porcine cardiac muscle was isolated from the left ventricle of Yucatan minipigs; tissue Exemplar Genetics; host or cells: left ventricle of Yucatan minipigs, myofibrils prepared in house
How it was run: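 Read-out: A340 kinetic, NADH consumption coupled to ADP via PK-LDH, 75 min. Yucatan minipig LV myofibrils, pCa buffer (PIPES/CaCl2/EGTA, pH 7.0). Linear-regression slope (mAU/min), vehicle = 100%, 4PL fit; Y75 or Y125 reported.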

[3] = system: Rabbit Psoas myofibrils (skeletal myosin ATPase); assay: Myofibril ATPase assay, rabbit psoas (skeletal) myofibrils; format: biochemical; details: rabbit psoas myofibrils
How it was run: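 Values derive from concentration–response fits of NADH consumption rates at 340 nm, normalized to vehicle-only wells, as Y75 or Y125. Myofibril ATP turnover was linked to NADH via PK/LDH in Ca/EGTA-buffered PIPES, pH 7.0, and read over 75 min.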

[4] = Y75 value (75% activity relative to no compound)
[5] = ‡ Y125 value, not a Y75 value (125% activity relative to no compound)

T1 sequence (P79293 whole entry): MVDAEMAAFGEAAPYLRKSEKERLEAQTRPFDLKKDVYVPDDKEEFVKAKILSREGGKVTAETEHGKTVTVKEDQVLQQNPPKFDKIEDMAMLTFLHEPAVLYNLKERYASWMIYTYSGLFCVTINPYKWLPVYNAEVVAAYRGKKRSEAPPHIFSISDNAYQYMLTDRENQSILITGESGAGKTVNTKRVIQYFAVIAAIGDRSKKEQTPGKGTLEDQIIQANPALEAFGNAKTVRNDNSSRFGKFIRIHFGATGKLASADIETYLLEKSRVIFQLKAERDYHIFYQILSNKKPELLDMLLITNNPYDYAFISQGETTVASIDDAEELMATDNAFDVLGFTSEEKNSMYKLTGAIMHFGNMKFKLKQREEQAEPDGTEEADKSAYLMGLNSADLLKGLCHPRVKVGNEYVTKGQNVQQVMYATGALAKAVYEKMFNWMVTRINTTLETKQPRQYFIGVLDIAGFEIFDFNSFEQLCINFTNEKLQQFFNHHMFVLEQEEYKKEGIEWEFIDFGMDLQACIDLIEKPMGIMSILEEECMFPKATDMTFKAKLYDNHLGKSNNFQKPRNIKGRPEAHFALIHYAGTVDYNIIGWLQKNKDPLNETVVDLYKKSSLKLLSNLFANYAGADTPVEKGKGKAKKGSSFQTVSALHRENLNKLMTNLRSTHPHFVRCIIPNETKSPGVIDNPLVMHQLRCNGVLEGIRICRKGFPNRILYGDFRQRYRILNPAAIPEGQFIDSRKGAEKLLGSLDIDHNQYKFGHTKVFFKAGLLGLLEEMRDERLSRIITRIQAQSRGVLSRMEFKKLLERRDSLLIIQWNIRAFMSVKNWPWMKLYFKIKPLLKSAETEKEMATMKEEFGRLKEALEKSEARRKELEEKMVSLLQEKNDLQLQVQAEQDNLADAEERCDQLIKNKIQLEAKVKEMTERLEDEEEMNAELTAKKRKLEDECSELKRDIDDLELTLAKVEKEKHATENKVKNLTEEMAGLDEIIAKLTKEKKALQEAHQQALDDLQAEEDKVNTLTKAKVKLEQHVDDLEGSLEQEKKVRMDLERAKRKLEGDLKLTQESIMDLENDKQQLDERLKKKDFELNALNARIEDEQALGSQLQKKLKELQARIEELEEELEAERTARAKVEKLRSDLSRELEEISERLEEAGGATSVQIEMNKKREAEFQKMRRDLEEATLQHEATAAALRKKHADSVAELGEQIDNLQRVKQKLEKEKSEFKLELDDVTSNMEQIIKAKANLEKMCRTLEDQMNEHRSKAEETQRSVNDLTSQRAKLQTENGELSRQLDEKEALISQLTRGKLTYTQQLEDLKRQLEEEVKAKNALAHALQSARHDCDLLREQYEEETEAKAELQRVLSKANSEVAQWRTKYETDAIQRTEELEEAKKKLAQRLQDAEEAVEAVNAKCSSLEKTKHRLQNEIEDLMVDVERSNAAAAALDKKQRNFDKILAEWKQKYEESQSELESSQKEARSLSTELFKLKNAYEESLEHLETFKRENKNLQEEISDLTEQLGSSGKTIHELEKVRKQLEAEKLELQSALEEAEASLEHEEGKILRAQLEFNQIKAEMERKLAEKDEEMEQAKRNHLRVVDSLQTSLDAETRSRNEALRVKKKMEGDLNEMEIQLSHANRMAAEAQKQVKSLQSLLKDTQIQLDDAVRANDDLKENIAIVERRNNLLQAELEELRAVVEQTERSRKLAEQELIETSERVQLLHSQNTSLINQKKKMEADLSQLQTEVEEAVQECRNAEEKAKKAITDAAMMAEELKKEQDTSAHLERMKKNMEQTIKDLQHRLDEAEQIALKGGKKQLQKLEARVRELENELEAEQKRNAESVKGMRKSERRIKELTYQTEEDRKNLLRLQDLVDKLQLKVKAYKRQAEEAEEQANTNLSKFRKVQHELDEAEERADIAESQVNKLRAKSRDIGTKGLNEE

Cc1nccc2[nH]c(=O)c(CC(=O)N[C@H]3COc4cc(C#N)cc(F)c43)c(C)c12 (single isomer, unassigned) [compound 178]
Atrial EC25 [1, 4]: 4550 nM | Ventricular EC25 ([2]; Y75 value): 20.24 µM | Skeletal EC25 ([3]; Y75 value): 1.84 µM

Cc1c(CC(=O)N[C@H](C)c2cnc(C#N)nc2)c(=O)[nH]c2cc(F)c(F)cc12 (single isomer, unassigned) [compound 2074]
Atrial EC25 ([1]; Y75 value (no ‡ mark)): 9010 nM | Ventricular EC25 ([2]; Y75 value (no ‡ mark)): 10.13 µM | Skeletal EC25 ([3]; Y75 value (no ‡ mark)): 4.03 µM

C[C@H](NC(=O)Cc1cc2nc(O)ccc2[nH]c1=O)c1ccc(F)cc1F [compound 300]
Atrial EC25 [1, 4]: 100000 nM | Ventricular EC25 ([2]; Y75 value): 100.00 µM | Skeletal EC25 ([3]; Y75 value): 100.00 µM

Cc1ccc2[nH]c(=O)c(CC(=O)N[C@@H](C)c3ccc(F)cc3F)c(C(F)(F)F)c2n1 [compound 419]
Atrial EC25 [1, 4]: 490 nM | Ventricular EC25 ([2]; Y75 value): 100.00 µM | Skeletal EC25 ([3]; Y75 value): 0.19 µM

Cc1c(C2(C(=O)N[C@@H](C)c3nccc(C#N)n3)CC2)c(=O)[nH]c2ccc(F)c(F)c12 (single isomer, unassigned) [compound 2510]
Atrial EC25 ([1]; Y75 value (no ‡ mark)): 7780 nM | Ventricular EC25 [2, 5]: 77.57‡ μM | Skeletal EC25 [3, 5]: 85.63‡ μM

Cc1c(CC(=O)N[C@H](C)c2ccc(F)cc2F)c(=O)[nH]c2ccnc(C#N)c12 [compound 269]
Atrial EC25 [1, 4]: 100000 nM | Ventricular EC25 ([2]; Y75 value): 34.76 µM | Skeletal EC25 ([3]; Y75 value): 2.47 µM

C[C@H](NC(=O)Cc1c(C2CC2)c2cc(F)ccc2[nH]c1=O)c1ncc(C#N)cc1F [compound 40]
Atrial EC25 ([1]; Y75 value (no ‡ mark)): 470 nM | Ventricular EC25 ([2]; Y75 value (no ‡ mark)): 0.41 µM | Skeletal EC25 ([3]; Y75 value (no ‡ mark)): 0.02 µM

Cc1nc(C#N)cnc1[C@H](C)NC(=O)Cc1c(C)c2c(C)nccc2[nH]c1=O [compound 492]
Atrial EC25 [1, 4]: 80 nM | Ventricular EC25 ([2]; Y75 value): 0.32 µM | Skeletal EC25 ([3]; Y75 value): 0.28 µM

Cc1nc(C#N)cnc1[C@H](C)NC(=O)C(F)(F)c1c(C)c2cc(F)ccc2[nH]c1=O (single isomer, unassigned) [compound 2568]
Atrial EC25 ([1]; Y75 value (no ‡ mark)): 570 nM | Ventricular EC25 ([2]; Y75 value (no ‡ mark)): 0.58 µM | Skeletal EC25 ([3]; Y75 value (no ‡ mark)): 0.11 µM

Cc1c(C(F)(F)C(=O)N[C@@H](C)c2ncc(C#N)cn2)c(=O)[nH]c2cccc(C#N)c12 (single isomer, unassigned) [compound 4839]
Atrial EC25 ([1]; Y75 value (no ‡ mark)): 1670 nM | Ventricular EC25 ([2]; Y75 value (no ‡ mark)): 1.85 µM | Skeletal EC25 ([3]; Y75 value (no ‡ mark)): 0.13 µM

Cc1cc(F)cc(F)c1[C@H](C)NC(=O)Cc1c(C)c2c(C)nccc2[nH]c1=O (single isomer, unassigned) [compound 403]
Atrial EC25 [1, 4]: 40230 nM | Ventricular EC25 ([2]; Y75 value): 2.08 µM | Skeletal EC25 ([3]; Y75 value): 0.19 µM

C[C@H](NC(=O)Cc1cc2cc(F)c(F)cc2[nH]c1=O)c1cnc(C#N)cn1 [compound 1099]
Atrial EC25 ([1]; Y75 value (no ‡ mark)): 7610 nM | Ventricular EC25 ([2]; Y75 value (no ‡ mark)): 49.75 µM | Skeletal EC25 ([3]; Y75 value (no ‡ mark)): 4.41 µM

Cc1c(C(F)(F)C(=O)N[C@H](C)c2ncc(C#N)cc2F)c(=O)[nH]c2ccc(F)c(C#N)c12 (single isomer, unassigned) [compound 4835]
Atrial EC25 ([1]; Y75 value (no ‡ mark)): 180 nM | Ventricular EC25 ([2]; Y75 value (no ‡ mark)): 0.77 µM | Skeletal EC25 ([3]; Y75 value (no ‡ mark)): 0.11 µM

Cc1nc(C#N)ncc1[C@@H](C)NC(=O)Cc1c(C)c2c(C)nccc2[nH]c1=O [compound 464]
Atrial EC25 [1, 4]: 370 nM | Ventricular EC25 ([2]; Y75 value): 0.18 µM | Skeletal EC25 ([3]; Y75 value): 0.03 µM

Cc1c([C@@H](C)C(=O)N[C@@H](C)c2ccc(F)cc2F)c(=O)[nH]c2ccc(C(F)(F)F)nc12 (single isomer, unassigned) [compound 370]
Atrial EC25 [1, 4]: 60 nM | Ventricular EC25 ([2]; Y75 value): 48.16 µM | Skeletal EC25 ([3]; Y75 value): 0.51 µM

Cc1c(CC(=O)N[C@@H](C)c2ncc(C#N)cc2F)c(=O)[nH]c2ccc(OC(F)(F)F)nc12 [compound 456]
Atrial EC25 [1, 4]: 660 nM | Ventricular EC25 ([2]; Y75 value): 3.69 µM | Skeletal EC25 ([3]; Y75 value): 0.53 µM

Cc1c(C(F)(F)C(=O)N[C@H](C)c2ncc(C#N)cc2F)c(=O)[nH]c2cccc(F)c12 (single isomer, unassigned) [compound 2538]
Atrial EC25 ([1]; Y75 value (no ‡ mark)): 170 nM | Ventricular EC25 ([2]; Y75 value (no ‡ mark)): 0.18 µM | Skeletal EC25 ([3]; Y75 value (no ‡ mark)): 0.11 µM

Cc1nccc2[nH]c(=O)c(CC(=O)N[C@H](C)c3ccc(C#N)cc3F)c(Cl)c12 [compound 151]
Atrial EC25 [1, 4]: 440 nM | Ventricular EC25 ([2]; Y75 value): 0.87 µM | Skeletal EC25 ([3]; Y75 value): 0.11 µM

COc1ccc2[nH]c(=O)c(CC(=O)N[C@@H](C)c3ccc(F)cc3F)c(C)c2n1 [compound 409]
Atrial EC25 [1, 4]: 40 nM | Ventricular EC25 ([2]; Y75 value): 0.59 µM | Skeletal EC25 ([3]; Y75 value): 0.03 µM

Cc1c(CC(=O)N[C@H](C)c2ncc(C#N)cc2F)c(=O)[nH]c2ccc(Cl)cc12 (single isomer, unassigned) [compound 2049]
Atrial EC25 ([1]; Y75 value (no ‡ mark)): 150 nM | Ventricular EC25 ([2]; Y75 value (no ‡ mark)): 0.23 µM | Skeletal EC25 ([3]; Y75 value (no ‡ mark)): 1.00 µM

C[C@H](NC(=O)Cc1c(C#N)c2cc(F)c(F)cc2[nH]c1=O)c1ccc(C#N)cn1 (single isomer, unassigned) [compound 2048]
Atrial EC25 ([1]; Y75 value (no ‡ mark)): 900 nM | Ventricular EC25 ([2]; Y75 value (no ‡ mark)): 10.98 µM | Skeletal EC25 ([3]; Y75 value (no ‡ mark)): 1.25 µM

Cc1c(C(F)(F)C(=O)N[C@H](CO)c2ncc(C#N)cc2F)c(=O)[nH]c2ccnc(C#N)c12 (single isomer, unassigned) [compound 3502]
Atrial EC25 [1, 4]: 150 nM | Ventricular EC25 ([2]; Y75 value): 0.31 µM | Skeletal EC25 ([3]; Y75 value): 0.08 µM

Cc1c(C2(C(=O)N[C@@H](C)c3ncc(C#N)cn3)CC2)c(=O)[nH]c2ccc(F)cc12 (single isomer, unassigned) [compound 2591]
Atrial EC25 ([1]; Y75 value (no ‡ mark)): 1520 nM | Ventricular EC25 ([2]; Y75 value (no ‡ mark)): 18.78 µM | Skeletal EC25 ([3]; Y75 value (no ‡ mark)): 100.00 µM

Cc1c(CC(=O)N[C@@H](C)c2ccc(F)cc2F)c(=O)[nH]c2ccc(F)c(C(F)(F)F)c12 [compound 96]
Atrial EC25 ([1]; Y75 value (no ‡ mark)): 70 nM | Ventricular EC25 ([2]; Y75 value (no ‡ mark)): 0.13 µM | Skeletal EC25 ([3]; Y75 value (no ‡ mark)): 0.01 µM

C[C@H](NC(=O)Cc1cc2nc(F)ccc2[nH]c1=O)c1ccc(F)cc1F [compound 392]
Atrial EC25 [1, 4]: 130 nM | Ventricular EC25 ([2]; Y75 value): 2.65 µM | Skeletal EC25 ([3]; Y75 value): 0.07 µM

Cc1nccc2[nH]c(=O)c([C@H](C)C(=O)N[C@H](C)c3ncc(C#N)cc3F)c(C)c12 (single isomer, unassigned) [compound 192]
Atrial EC25 [1, 4]: 590 nM | Ventricular EC25 ([2]; Y75 value): 14.65 µM | Skeletal EC25 ([3]; Y75 value): 0.55 µM

C[C@@H](NC(=O)Cc1c(C(F)(F)F)c2c(C3CC3)nccc2[nH]c1=O)c1ncc(C#N)cn1 (single isomer, unassigned) [compound 3001]
Atrial EC25 [1, 4]: 1250 nM | Ventricular EC25 ([2]; Y75 value): 17.65 µM | Skeletal EC25 ([3]; Y75 value): 4.13 µM

C[C@H](NC(=O)C(F)(F)c1cc2cc(F)ccc2[nH]c1=O)c1cc(C#N)ccn1 (single isomer, unassigned) [compound 2574]
Atrial EC25 ([1]; Y75 value (no ‡ mark)): 100000 nM | Ventricular EC25 ([2]; Y75 value (no ‡ mark)): 100.00 µM | Skeletal EC25 ([3]; Y75 value (no ‡ mark)): 100.00 µM

Cc1c(CC(=O)N[C@H](C)c2ccc(C#N)cn2)c(=O)[nH]c2ccc(F)c(F)c12 [compound 45]
Atrial EC25 ([1]; Y75 value (no ‡ mark)): 70 nM | Ventricular EC25 ([2]; Y75 value (no ‡ mark)): 0.42 µM | Skeletal EC25 ([3]; Y75 value (no ‡ mark)): 0.12 µM

Cc1c(CC(=O)N[C@@H](C)c2ccc(C#N)cc2F)c(=O)[nH]c2ccc(C(F)(F)F)nc12 (single isomer, unassigned) [compound 209]
Atrial EC25 [1, 4]: 30 nM | Ventricular EC25 ([2]; Y75 value): 0.14 µM | Skeletal EC25 ([3]; Y75 value): 0.01 µM

Cc1nccc2[nH]c(=O)c(CC(=O)N[C@@H](CO)c3ccncc3)c(C)c12 [compound 293]
Atrial EC25 [1, 4]: 100000 nM | Ventricular EC25 ([2]; Y75 value): 100.00 µM | Skeletal EC25 ([3]; Y75 value): 73.40 µM

Cc1c(C2(C(=O)N[C@@H](C)c3cccc(C#N)n3)CC2)c(=O)[nH]c2ccc(F)c(F)c12 (single isomer, unassigned) [compound 2548]
Atrial EC25 ([1]; Y75 value (no ‡ mark)): 45390 nM | Ventricular EC25 ([2]; Y75 value (no ‡ mark)): 100.00 µM | Skeletal EC25 [3, 5]: 45.96‡ μM
